Assay results reported in ChEMBL document CHEMBL1201862, “PubChem BioAssay data set” (2004).
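Briefly, cells in 96-well plates were exposed to five compound concentrations for 48 h, and endpoints were estimated by linear interpolation. GI50 is the concentration that inhibits growth by half.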 Calls of active or inactive are those of the source. Rule as the data show it: active = GI50 up to about 1.1 µM and inactive = higher.

Tests used:
Test in all cases: growth of human tumour cells (NCI), 48 h
786-0 = system: 786-0
OVCAR-3 = system: OVCAR-3
RPMI-8226 = system: RPMI-8226
SN12C = system: SN12C
SNB-75 = system: SNB-75
RXF 393 = system: RXF 393
MDA-MB-231 = system: MDA-MB-231
MDA-MB-435 = system: MDA-MB-435
PC-3 = system: PC-3
Malme-3M = system: Malme-3M
HOP-92 = system: HOP-92
UACC-257 = system: UACC-257
HL-60 = system: HL-60
LOX IMVI = system: LOX IMVI
A549 = system: A549
SK-MEL-28 = system: SK-MEL-28
HOP-62 = system: HOP-62
T47D = system: T47D
SF-268 = system: SF-268
Hs-578T = system: Hs-578T

Measured: GI50

CC(C)CC(NC(=O)C(C)(CI)Cc1ccccc1)C(=O)Nc1ccccc1 (stereo unspecified)
inactive: 786-0 > 100 µM | OVCAR-3 > 100 µM | RPMI-8226 > 100 µM | SN12C > 100 µM | SNB-75 86.5 µM | RXF 393 > 100 µM | MDA-MB-231 > 100 µM | MDA-MB-435 > 100 µM | PC-3 > 100 µM | Malme-3M > 100 µM | HOP-92 > 100 µM | UACC-257 > 100 µM | HL-60 33.2 µM | LOX IMVI > 100 µM | A549 > 100 µM

Cc1ccc(C(=O)N/N=C(\N=N\c2ccc(C(=O)O)cc2)c2ccc(N(CCC#N)CCC#N)cc2C)cc1
inactive: SK-MEL-28 > 100 µM | 786-0 > 100 µM | HOP-62 > 100 µM | T47D 70.5 µM | OVCAR-3 62.8 µM | RPMI-8226 > 100 µM | SN12C > 100 µM | SNB-75 43.9 µM | RXF 393 32.1 µM | MDA-MB-231 > 100 µM | MDA-MB-435 > 100 µM | PC-3 > 100 µM | HOP-92 > 100 µM | UACC-257 > 100 µM | HL-60 79.3 µM | LOX IMVI > 100 µM | A549 > 100 µM

CC1(C)C2CCC(N)(C2)C1O (stereo unspecified)
inactive: SK-MEL-28 > 100 µM | 786-0 > 100 µM | HOP-62 > 100 µM | T47D > 100 µM | OVCAR-3 > 100 µM | RPMI-8226 > 100 µM | SN12C > 100 µM | SNB-75 > 100 µM | RXF 393 > 100 µM | MDA-MB-435 > 100 µM | PC-3 > 100 µM | HOP-92 > 100 µM | UACC-257 > 100 µM | HL-60 > 10 µM | LOX IMVI > 100 µM | A549 > 100 µM

c1c[nH]c(-c2cccc3nsnc23)c1
inactive: SK-MEL-28 > 100 µM | 786-0 > 100 µM | HOP-62 30.7 µM | T47D 3.78 µM | RPMI-8226 57.7 µM | SN12C 94.2 µM | SNB-75 49.4 µM | RXF 393 38.1 µM | MDA-MB-231 99.3 µM | MDA-MB-435 > 100 µM | PC-3 95.9 µM | Malme-3M > 100 µM | UACC-257 > 100 µM | SF-268 > 100 µM | LOX IMVI 63.1 µM | A549 72.3 µM

N#C/C(=C/NC(N)=S)C(N)=O
inactive: SK-MEL-28 > 100 µM | 786-0 > 100 µM | HOP-62 > 100 µM | T47D > 100 µM | OVCAR-3 > 100 µM | SN12C > 100 µM | SNB-75 > 100 µM | RXF 393 > 100 µM | MDA-MB-231 > 100 µM | MDA-MB-435 > 100 µM | HOP-92 > 100 µM | UACC-257 > 100 µM | SF-268 > 100 µM | HL-60 > 100 µM | LOX IMVI > 100 µM | A549 > 100 µM

O=[N+]([O-])/C(C(Cl)=C(Cl)Cl)=C1\NCCS1
inactive: SK-MEL-28 48.2 µM | 786-0 36.1 µM | HOP-62 > 100 µM | OVCAR-3 33.3 µM | RPMI-8226 19 µM | SN12C 36.5 µM | RXF 393 27.9 µM | MDA-MB-231 38.8 µM | MDA-MB-435 35.8 µM | PC-3 35.6 µM | Malme-3M 19.7 µM | Hs-578T 27.4 µM | UACC-257 42.2 µM | SF-268 39.9 µM | HL-60 16.9 µM | LOX IMVI 20.1 µM | A549 > 100 µM

OC1c2[nH]c3ccccc3c2CCN2CCCCC12 (stereo unspecified)
inactive: SK-MEL-28 > 100 µM | 786-0 > 100 µM | HOP-62 > 100 µM | T47D > 100 µM | OVCAR-3 > 100 µM | RPMI-8226 > 100 µM | SN12C > 100 µM | SNB-75 59.4 µM | RXF 393 > 100 µM | MDA-MB-231 > 100 µM | MDA-MB-435 > 100 µM | PC-3 > 100 µM | Malme-3M > 100 µM | HOP-92 51.1 µM | UACC-257 > 100 µM | SF-268 > 100 µM | HL-60 > 100 µM | LOX IMVI > 100 µM | A549 > 100 µM

Cc1ccc(NC(=O)CCc2cc(C(C)(C)C)nc(S)n2)cc1C
inactive: SK-MEL-28 > 100 µM | 786-0 > 100 µM | HOP-62 > 100 µM | OVCAR-3 > 100 µM | RPMI-8226 > 100 µM | SN12C > 100 µM | SNB-75 > 100 µM | RXF 393 > 100 µM | Malme-3M > 100 µM | HOP-92 > 100 µM | UACC-257 > 100 µM | SF-268 > 100 µM | HL-60 > 100 µM | LOX IMVI > 100 µM | A549 > 100 µM

CN1CCN(c2nc(N)c(Br)c(Cl)n2)CC1
inactive: SK-MEL-28 > 100 µM | 786-0 > 100 µM | HOP-62 > 100 µM | OVCAR-3 > 100 µM | RPMI-8226 > 100 µM | SN12C > 100 µM | SNB-75 58.3 µM | RXF 393 > 100 µM | Malme-3M > 100 µM | HOP-92 54.3 µM | UACC-257 > 100 µM | SF-268 > 100 µM | HL-60 > 100 µM | LOX IMVI > 100 µM | A549 > 100 µM

O=C(/C=C1/Nc2ccc([N+](=O)[O-])cc2N/C1=C/C(=O)c1ccccc1)c1ccccc1
inactive: 786-0 18.3 µM | HOP-62 12.1 µM | T47D 18.3 µM | OVCAR-3 16.7 µM | SN12C 40.8 µM | SNB-75 16.9 µM | RXF 393 14.3 µM | MDA-MB-231 16.6 µM | MDA-MB-435 > 100 µM | PC-3 43.7 µM | Malme-3M 40.8 µM | UACC-257 > 100 µM | SF-268 15.2 µM | A549 36.3 µM

Nc1ccn(CCO)c(=O)n1
inactive: SK-MEL-28 > 100 µM | 786-0 > 100 µM | HOP-62 > 100 µM | OVCAR-3 > 100 µM | RPMI-8226 > 100 µM | SN12C > 100 µM | SNB-75 > 100 µM | RXF 393 > 100 µM | Malme-3M > 100 µM | HOP-92 > 100 µM | UACC-257 > 100 µM | SF-268 > 100 µM | HL-60 > 100 µM | LOX IMVI > 100 µM | A549 > 100 µM

CC(C)CC(=O)NC(C(=O)NC(C(=O)NC(CC(C)C)C(O)CC(=O)NC(C)C(=O)NC(CC(C)C)C(O)CC(=O)O)C(C)C)C(C)C (stereo unspecified)
inactive: SK-MEL-28 > 100 µM | 786-0 > 100 µM | HOP-62 > 100 µM | OVCAR-3 > 100 µM | RPMI-8226 > 100 µM | SN12C > 100 µM | SNB-75 > 100 µM | MDA-MB-231 > 100 µM | MDA-MB-435 > 100 µM | PC-3 > 100 µM | Malme-3M > 100 µM | HOP-92 > 100 µM | UACC-257 > 100 µM | SF-268 > 100 µM | LOX IMVI > 100 µM | A549 > 100 µM
